Tests used:
Assay in all cases: cells
[1] = test system: Calu-6; assay type: functional, cell-based, Homo sapiens; settings: Homo sapiens, Calu-6;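 note: growth of human Calu-6 cells, read out by a cell viability assay, IC50 marking inhibition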
Description: SANGER: Inhibition of human Calu-6 cell growth in a cell viability assay.

[2] = test system: D-263MG; assay type: functional, cell-based, Homo sapiens; settings: Homo sapiens, D-263MG
Description: SANGER: Inhibition of human D-263MG cell growth in a cell viability assay.

[3] = test system: DB; assay type: functional, cell-based, Homo sapiens; settings: Homo sapiens, DB
Description: SANGER: Inhibition of human DB cell growth in a cell viability assay.

[4] = test system: DMS-79; assay type: functional, cell-based, Homo sapiens; settings: Homo sapiens, DMS-79;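 note: growth inhibition measured with a cell viability assay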
Description: SANGER: Inhibition of human DMS-79 cell growth in a cell viability assay.

[5] = test system: DU-4475; assay type: functional, cell-based, Homo sapiens; settings: Homo sapiens, DU-4475
Description: SANGER: Inhibition of human DU-4475 cell growth in a cell viability assay.

[6] = test system: EW-1; assay type: functional, cell-based, Homo sapiens; settings: Homo sapiens, EW-1;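 note: growth inhibition of the human EW-1 cell line, read out by a cell viability assay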
Description: SANGER: Inhibition of human EW-1 cell growth in a cell viability assay.

[7] = test system: HCC2218; assay type: functional, cell-based, Homo sapiens; settings: Homo sapiens, HCC2218;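 note: cell viability assay read-out, with IC50 given as the concentration that inhibits growth of the cell line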
Description: SANGER: Inhibition of human HCC2218 cell growth in a cell viability assay.

[8] = test system: HEL; assay type: functional, cell-based, Homo sapiens; settings: Homo sapiens, HEL;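 note: growth inhibition of HEL cells, read out with a cell viability assay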
Description: SANGER: Inhibition of human HEL cell growth in a cell viability assay.

[9] = test system: HT; assay type: functional, cell-based, Homo sapiens; settings: Homo sapiens, HT
Description: SANGER: Inhibition of human HT cell growth in a cell viability assay.

[10] = test system: HT-144; assay type: functional, cell-based, Homo sapiens; settings: Homo sapiens, HT-144
Description: SANGER: Inhibition of human HT-144 cell growth in a cell viability assay.

[11] = test system: HuTu80; assay type: functional, cell-based, Homo sapiens, HUTU-80; settings: Homo sapiens, HuTu80;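 note: growth inhibition of HuTu80 human cells, determined with a cell viability readout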
Description: SANGER: Inhibition of human HUTU-80 cell growth in a cell viability assay.

[12] = test system: JAR; assay type: functional, cell-based, Homo sapiens; settings: Homo sapiens, JAR;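 note: growth inhibition of human JAR cells determined with a cell viability assay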
Description: SANGER: Inhibition of human JAR cell growth in a cell viability assay.

[13] = test system: KM12; assay type: functional, cell-based, Homo sapiens; settings: Homo sapiens, KM12;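 note: KM12 cell growth inhibition, read out with a cell viability assay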
Description: SANGER: Inhibition of human KM12 cell growth in a cell viability assay.

[14] = test system: LB996-RCC; assay type: functional, cell-based, Homo sapiens; settings: Homo sapiens, LB996-RCC
Description: SANGER: Inhibition of human LB996-RCC cell growth in a cell viability assay.

[15] = test system: LC-2-ad; assay type: functional, cell-based, Homo sapiens; settings: Homo sapiens, LC-2-ad;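 note: growth inhibition of human LC-2-ad cells, read out with a cell viability assay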
Description: SANGER: Inhibition of human LC-2-ad cell growth in a cell viability assay.

[16] = test system: LNCaP-Clone-FGC; assay type: functional, cell-based, Homo sapiens; settings: Homo sapiens, LNCaP-Clone-FGC
Description: SANGER: Inhibition of human LNCaP-Clone-FGC cell growth in a cell viability assay.

[17] = test system: MZ1-PC; assay type: functional, cell-based, Homo sapiens; settings: Homo sapiens, MZ1-PC;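 note: cell viability assay measuring growth inhibition of human MZ1-PC cells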
Description: SANGER: Inhibition of human MZ1-PC cell growth in a cell viability assay.

[18] = test system: MZ7-mel; assay type: functional, cell-based, Homo sapiens; settings: Homo sapiens, MZ7-mel;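 note: growth inhibition of human MZ7-mel cells, measured by a cell viability assay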
Description: SANGER: Inhibition of human MZ7-mel cell growth in a cell viability assay.

[19] = test system: NB10; assay type: functional, cell-based, Homo sapiens; settings: Homo sapiens, NB10;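 note: growth inhibition of NB10 cells, read out by a cell viability assay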
Description: SANGER: Inhibition of human NB10 cell growth in a cell viability assay.

[20] = test system: NB5; assay type: functional, cell-based, Homo sapiens; settings: Homo sapiens, NB5;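 note: growth inhibition of NB5 cells, read out as cell viability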
Description: SANGER: Inhibition of human NB5 cell growth in a cell viability assay.

[21] = test system: NCI-H1092; assay type: functional, cell-based, Homo sapiens; settings: Homo sapiens, NCI-H1092;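 note: cell growth inhibition measured with a cell viability assay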
Description: SANGER: Inhibition of human NCI-H1092 cell growth in a cell viability assay.

[22] = test system: NCI-H2126; assay type: functional, cell-based, Homo sapiens; settings: Homo sapiens, NCI-H2126;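 note: growth inhibition of the cancer cell line, determined with a cell viability readout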
Description: SANGER: Inhibition of human NCI-H2126 cell growth in a cell viability assay.

[23] = test system: NCI-H226; assay type: functional, cell-based, Homo sapiens; settings: Homo sapiens, NCI-H226;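 note: cell viability read-out used to gauge growth inhibition of the cells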
Description: SANGER: Inhibition of human NCI-H226 cell growth in a cell viability assay.

[24] = test system: NCI-H446; assay type: functional, cell-based, Homo sapiens; settings: Homo sapiens, NCI-H446;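 note: growth inhibition of NCI-H446 cells determined by a cell viability assay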
Description: SANGER: Inhibition of human NCI-H446 cell growth in a cell viability assay.

[25] = test system: NCI-H69; assay type: functional, cell-based, Homo sapiens; settings: Homo sapiens, NCI-H69;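 note: growth inhibition of the cell line, read out with a cell viability assay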
Description: SANGER: Inhibition of human NCI-H69 cell growth in a cell viability assay.

[26] = test system: SNU-5; assay type: functional, cell-based, Homo sapiens; settings: Homo sapiens, SNU-5;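 note: cell viability readout used to measure growth inhibition in human NCI-SNU-5 cells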
Description: SANGER: Inhibition of human NCI-SNU-5 cell growth in a cell viability assay.

[27] = test system: NH-12; assay type: functional, cell-based, Homo sapiens; settings: Homo sapiens, NH-12;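 note: growth inhibition of NH-12 cells, read out with a cell viability assay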
Description: SANGER: Inhibition of human NH-12 cell growth in a cell viability assay.

[28] = test system: QIMR-WIL; assay type: functional, cell-based, Homo sapiens; settings: Homo sapiens, QIMR-WIL;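 note: growth inhibition of QIMR-WIL cells, read out with a cell viability assay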
Description: SANGER: Inhibition of human QIMR-WIL cell growth in a cell viability assay.

[29] = test system: RS4-11; assay type: functional, cell-based, Homo sapiens; settings: Homo sapiens, RS4-11;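 note: growth inhibition of RS4-11 cells, read out by a cell viability assay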
Description: SANGER: Inhibition of human RS4-11 cell growth in a cell viability assay.

[30] = test system: RXF 393; assay type: functional, cell-based, Homo sapiens; settings: Homo sapiens, RXF 393;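 note: growth inhibition of human RXF 393 cells, read out with a cell viability assay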
Description: SANGER: Inhibition of human RXF393 cell growth in a cell viability assay.

[31] = test system: Ramos-2G6-4C10; assay type: functional, cell-based, Homo sapiens; settings: Homo sapiens, Ramos-2G6-4C10;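 note: growth inhibition of the cell line, measured by a cell viability read-out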
Description: SANGER: Inhibition of human Ramos-2G6-4C10 cell growth in a cell viability assay.

[32] = test system: SCH; assay type: functional, cell-based, Homo sapiens; settings: Homo sapiens, SCH;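 note: growth inhibition of human SCH cells, read out in a cell viability assay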
Description: SANGER: Inhibition of human SCH cell growth in a cell viability assay.

[33] = test system: SJSA-1; assay type: functional, cell-based, Homo sapiens; settings: Homo sapiens, SJSA-1;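 note: growth inhibition of human SJSA-1 cells, read out through a cell viability measurement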
Description: SANGER: Inhibition of human SJSA-1 cell growth in a cell viability assay.

[34] = test system: SK-LMS-1; assay type: functional, cell-based, Homo sapiens; settings: Homo sapiens, SK-LMS-1;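 note: growth inhibition of human SK-LMS-1 cells, read out with a cell viability assay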
Description: SANGER: Inhibition of human SK-LMS-1 cell growth in a cell viability assay.

[35] = test system: SK-MEL-2; assay type: functional, cell-based, Homo sapiens; settings: Homo sapiens, SK-MEL-2;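 note: growth inhibition of human SK-MEL-2 cells measured with a cell viability assay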
Description: SANGER: Inhibition of human SK-MEL-2 cell growth in a cell viability assay.

[36] = test system: SK-PN-DW; assay type: functional, cell-based, Homo sapiens; settings: Homo sapiens, SK-PN-DW;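 note: growth inhibition measured with a viability assay on these cells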
Description: SANGER: Inhibition of human SK-PN-DW cell growth in a cell viability assay.

[37] = test system: SW684; assay type: functional, cell-based, Homo sapiens; settings: Homo sapiens, SW684;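 note: growth inhibition of human SW684 cells, measured by a cell viability assay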
Description: SANGER: Inhibition of human SW684 cell growth in a cell viability assay.

[38] = test system: A498; assay type: functional, cell-based, Homo sapiens; settings: Homo sapiens, A498;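 note: growth inhibition of human A498 cells, read out with a cell viability assay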
Description: SANGER: Inhibition of human A498 cell growth in a cell viability assay.

[39] = test system: ACN; assay type: functional, cell-based, Homo sapiens; settings: Homo sapiens, ACN;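 note: growth inhibition of the human ACN cell line, read out via cell viability testing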
Description: SANGER: Inhibition of human ACN cell growth in a cell viability assay.

[40] = test system: AM-38; assay type: functional, cell-based, Homo sapiens; settings: Homo sapiens, AM-38;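 note: growth inhibition of AM-38 cells of human origin, read out by a cell viability assay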
Description: SANGER: Inhibition of human AM-38 cell growth in a cell viability assay.

[41] = test system: BT-474; assay type: functional, cell-based, Homo sapiens; settings: Homo sapiens, BT-474
Description: SANGER: Inhibition of human BT-474 cell growth in a cell viability assay.

[42] = test system: Becker; assay type: functional, cell-based, Homo sapiens; settings: Homo sapiens, Becker;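 note: growth inhibition of Becker cells, read out with a cell viability assay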
Description: SANGER: Inhibition of human Becker cell growth in a cell viability assay.

[43] = test system: C8166; assay type: functional, cell-based, Homo sapiens; settings: Homo sapiens, C8166;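 note: growth inhibition of human C8166 cells measured by a cell viability assay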
Description: SANGER: Inhibition of human C8166 cell growth in a cell viability assay.

[44] = test system: TE-10; assay type: functional, cell-based, Homo sapiens; settings: Homo sapiens, TE-10;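 note: growth inhibition of TE-10 cells, measured by a cell viability assay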
Description: SANGER: Inhibition of human TE-10 cell growth in a cell viability assay.

[45] = test system: TE-6; assay type: functional, cell-based, Homo sapiens; settings: Homo sapiens, TE-6;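 note: growth inhibition of TE-6 cells, read out with a cell viability assay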
Description: SANGER: Inhibition of human TE-6 cell growth in a cell viability assay.

[46] = test system: TE-9; assay type: functional, cell-based, Homo sapiens; settings: Homo sapiens, TE-9;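 note: cell growth inhibition, measured with a cell viability readout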
Description: SANGER: Inhibition of human TE-9 cell growth in a cell viability assay.

[47] = test system: U-87 MG; assay type: functional, cell-based, Homo sapiens, U-87MG ATCC; settings: Homo sapiens, U-87 MG;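 note: growth inhibition of the cells measured with a viability assay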
Description: SANGER: Inhibition of human U-87-MG cell growth in a cell viability assay.

[48] = test system: UACC-257; assay type: functional, cell-based, Homo sapiens; settings: Homo sapiens, UACC-257
Description: SANGER: Inhibition of human UACC-257 cell growth in a cell viability assay.

SMILES: Nc1ccn([C@@H]2O[C@H](CO)[C@@H](O)C2(F)F)c(=O)n1 [GEMCITABINE]
- IC50 [1]: 0.00173 µM
- IC50 [2]: > 1.02 µM
- IC50 [3]: 0.0844 µM
- IC50 [4]: > 1.02 µM
- IC50 [5]: 0.00314 µM
- IC50 [6]: 0.00222 µM
- IC50 [7]: > 1.02 µM
- IC50 [8]: 0.00179 µM
- IC50 [9]: > 1.02 µM
- IC50 [10]: 0.00492 µM
- IC50 [11]: < 0.004 µM
- IC50 [12]: > 1.02 µM
- IC50 [13]: 0.0915 µM
- IC50 [14]: 0.0651 µM
- IC50 [15]: < 0.004 µM
- IC50 [16]: > 1.02 µM
- IC50 [17]: 0.254 µM
- IC50 [18]: 0.0427 µM
- IC50 [19]: 0.0244 µM
- IC50 [20]: > 1.02 µM
- IC50 [21]: > 1.02 µM
- IC50 [22]: > 1.02 µM
- IC50 [23]: 0.317 µM
- IC50 [24]: 0.269 µM
- IC50 [25]: 0.459 µM
- IC50 [26]: 0.0121 µM
- IC50 [27]: 0.0255 µM
- IC50 [28]: < 0.004 µM
- IC50 [29]: < 0.004 µM
- IC50 [30]: > 1.02 µM
- IC50 [31]: 0.661 µM
- IC50 [32]: > 1.02 µM
- IC50 [33]: 0.195 µM
- IC50 [34]: < 0.004 µM
- IC50 [35]: > 1.02 µM
- IC50 [36]: < 0.004 µM
- IC50 [37]: > 1.02 µM
- IC50 [38]: > 1.02 µM
- IC50 [39]: < 0.004 µM
- IC50 [40]: < 0.004 µM
- IC50 [41]: > 1.02 µM
- IC50 [42]: 0.267 µM
- IC50 [43]: 0.0131 µM
- IC50 [44]: 0.0162 µM
- IC50 [45]: 0.25 µM
- IC50 [46]: 0.19 µM
- IC50 [47]: 0.191 µM
- IC50 [48]: 0.364 µM

SMILES: Cc1cc([N+](=O)[O-])ccc1NS(=O)(=O)c1cc(Cl)ccc1Cl
- IC50 [1]: 0.831 µM
- IC50 [2]: 10.7 µM
- IC50 [3]: 8.17 µM
- IC50 [4]: > 32 µM
- IC50 [5]: 7.83 µM
- IC50 [6]: 15.3 µM
- IC50 [7]: 3.44 µM
- IC50 [8]: 6.96 µM
- IC50 [9]: 2.75 µM
- IC50 [10]: 2.94 µM
- IC50 [11]: 1.15 µM
- IC50 [12]: 23 µM
- IC50 [13]: 5.99 µM
- IC50 [14]: 14.5 µM
- IC50 [15]: 4.63 µM
- IC50 [16]: 21.6 µM
- IC50 [17]: 6.31 µM
- IC50 [18]: 3.39 µM
- IC50 [19]: 16.3 µM
- IC50 [20]: 14.5 µM
- IC50 [21]: > 32 µM
- IC50 [22]: 24.8 µM
- IC50 [23]: 12.3 µM
- IC50 [24]: > 32 µM
- IC50 [25]: > 32 µM
- IC50 [26]: > 32 µM
- IC50 [27]: 14.6 µM
- IC50 [28]: 6.82 µM
- IC50 [29]: 13.2 µM
- IC50 [30]: > 32 µM
- IC50 [31]: 6 µM
- IC50 [32]: 20.5 µM
- IC50 [33]: 5.7 µM
- IC50 [34]: 3.1 µM
- IC50 [35]: 1.72 µM
- IC50 [36]: 11.6 µM
- IC50 [37]: > 32 µM
- IC50 [38]: > 32 µM
- IC50 [39]: 3.71 µM
- IC50 [40]: 18.8 µM
- IC50 [41]: 4.42 µM
- IC50 [42]: 16.5 µM
- IC50 [43]: 6.1 µM
- IC50 [44]: 4 µM
- IC50 [45]: 19.2 µM
- IC50 [46]: 2.69 µM
- IC50 [47]: 22.4 µM
- IC50 [48]: 3.84 µM

SMILES: Oc1ccc2ccccc2c1SSc1c(O)ccc2ccccc12
- IC50 [1]: > 32 µM
- IC50 [2]: > 32 µM
- IC50 [3]: 12.7 µM
- IC50 [4]: > 32 µM
- IC50 [5]: > 32 µM
- IC50 [6]: 14.2 µM
- IC50 [7]: > 32 µM
- IC50 [8]: 3.73 µM
- IC50 [9]: > 32 µM
- IC50 [10]: > 32 µM
- IC50 [11]: > 32 µM
- IC50 [12]: > 32 µM
- IC50 [13]: > 32 µM
- IC50 [14]: > 32 µM
- IC50 [15]: 24.1 µM
- IC50 [16]: > 32 µM
- IC50 [17]: > 32 µM
- IC50 [18]: > 32 µM
- IC50 [19]: > 32 µM
- IC50 [20]: > 32 µM
- IC50 [21]: > 32 µM
- IC50 [22]: > 32 µM
- IC50 [23]: 12.6 µM
- IC50 [24]: > 32 µM
- IC50 [25]: > 32 µM
- IC50 [26]: > 32 µM
- IC50 [27]: 5.12 µM
- IC50 [28]: 2.91 µM
- IC50 [29]: 23.2 µM
- IC50 [30]: > 32 µM
- IC50 [31]: > 32 µM
- IC50 [32]: > 32 µM
- IC50 [33]: > 32 µM
- IC50 [34]: 14.8 µM
- IC50 [35]: > 32 µM
- IC50 [36]: 27.9 µM
- IC50 [37]: > 32 µM
- IC50 [38]: > 32 µM
- IC50 [39]: > 32 µM
- IC50 [40]: 21.7 µM
- IC50 [41]: 7.41 µM
- IC50 [42]: > 32 µM
- IC50 [43]: > 32 µM
- IC50 [44]: > 32 µM
- IC50 [45]: > 32 µM
- IC50 [46]: > 32 µM
- IC50 [47]: > 32 µM
- IC50 [48]: > 32 µM

Reference: ChEMBL document CHEMBL1201861, “Genomics of Drug Sensitity in Cancer screening data, Wellcome Trust Sanger Institute”
